Tested on: human PBMCs
Assay: Human PBMC cytokine response assay (IFN-γ and IFN-α in cell-free medium by ELISA), with or without cPLGA;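 as to IFN-α (pg/ml) mean: 20 µg/mL compound for 24 hours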;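 as to IFN-γ (pg/ml) mean: 20 µg/mL compound for 24 hours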
Assay type: cell-based
[1] = Table 24, mean of donors 28234-28237
[2] = Table 25, mean of donors 28250-28253
[3] = donor 28066, 20 ug/ml, 24 h, + PLGA = premixed with 100 μg/ml cPLGA
[4] = donor 28067, 20 ug/ml, 24 h, + PLGA = premixed with 100 μg/ml cPLGA
[5] = donor 28068, 20 ug/ml, 24 h, + PLGA = premixed with 100 μg/ml cPLGA
[6] = mean of Donors 1-2, 20 μg/ml, 24 h
[7] = mean of Donors 3-4, 20 μg/ml, 24 h
[8] = mean of Donors 5-6, 20 μg/ml (mixtures: 20 μg/ml total), 24 h
[9] = mean of Donors 7-8, 20 μg/ml, 24 h
[10] = mean of Donors 9-12, 20 μg/ml, 24 h
[11] = mean of donors 110, 112, 119, 120, Table 14
[12] = mean of donors 28057-28060, Table 16
[13] = mean of donors 28065-28068, 20 ug/ml, 24 h, + PLGA = premixed with 100 μg/ml cPLGA
[14] = mean of donors 28185-28188, Table 15
[15] = mean of donors 28218-28221, 20 μg/ml, 24 h

5′-TGACTGTGAACGTTCGAGATGA-3′ (SEQ ID NO: 2) [Compound P-6, reference compound]
IFN-α (Table 13, donor 28158): 7 pg/mL | IFN-γ (Table 13, donor 28158): 207 pg/mL | IFN-α (Table 13, donor 28159): 32 pg/mL | IFN-γ (Table 13, donor 28159): 231 pg/mL | IFN-α mean (Table 13, mean of donors): 144 pg/mL | IFN-γ mean (Table 13, mean of donors): 611 pg/mL | IFN-α (Table 24, donor 28234): 58 pg/mL | IFN-γ (Table 24, donor 28234): 15 pg/mL | IFN-α (Table 24, donor 28235): 16 pg/mL | IFN-γ (Table 24, donor 28235): 52 pg/mL | IFN-α (Table 24, donor 28236): 16 pg/mL | IFN-γ (Table 24, donor 28236): 51 pg/mL | IFN-α (Table 24, donor 28237): 74 pg/mL | IFN-γ (Table 24, donor 28237): 1167 pg/mL | IFN-α mean [1]: 41 pg/mL | IFN-γ mean [1]: 321 pg/mL | IFN-a (Table 25, donor 28250): 16 pg/mL | IFN-a (Table 25, donor 28251): 16 pg/mL | IFN-g (Table 25, donor 28251): 18 pg/mL | IFN-a (Table 25, donor 28252): 16 pg/mL | IFN-g (Table 25, donor 28252): 34 pg/mL | IFN-a (Table 25, donor 28253): 16 pg/mL | IFN-g (Table 25, donor 28253): 37 pg/mL | IFN-a mean [2]: 16 pg/mL | IFN-g mean [2]: 52 pg/mL | IFN-α (donor 110, Table 14): 50 pg/mL | IFN-γ (donor 110, Table 14): 1508 pg/mL | IFN-α (donor 112, Table 14): 172 pg/mL | IFN-γ (donor 112, Table 14): 344 pg/mL | IFN-α (donor 119, Table 14): 234 pg/mL | IFN-γ (donor 119, Table 14): 144 pg/mL | IFN-α (donor 120, Table 14): 72 pg/mL | IFN-γ (donor 120, Table 14): 104 pg/mL | IFN-α (donor 28057, Table 16): 621 pg/mL | IFN-γ (donor 28057, Table 16): 83 pg/mL | IFN-α (donor 28058, Table 16): 396 pg/mL | IFN-γ (donor 28058, Table 16): 103 pg/mL | IFN-α (donor 28059, Table 16): 145 pg/mL | IFN-γ (donor 28059, Table 16): 1230 pg/mL | IFN-α (donor 28060, Table 16): 123 pg/mL | IFN-γ (donor 28060, Table 16): 85 pg/mL | IFN-γ (pg/ml) 28065 (donor 28065 (high background), 20 ug/ml, 24 h, + PLGA = premixed with 100 μg/ml cPLGA, 1000 = outside assay limits): 439 pg/mL | IFN-α (pg/ml) 28065 (donor 28065, 20 ug/ml, 24 h, + PLGA = premixed with 100 μg/ml cPLGA): 14 pg/mL | IFN-α (pg/ml) 28066 [3]: 17 pg/mL | IFN-γ (pg/ml) 28066 [3]: 12 pg/mL | IFN-α (pg/ml) 28067 [4]: 45 pg/mL | IFN-γ (pg/ml) 28067 [4]: 28 pg/mL | IFN-α (pg/ml) 28068 [5]: 126 pg/mL | IFN-γ (pg/ml) 28068 [5]: 906 pg/mL | IFN-a (donor 28185, Table 15): 120 pg/mL | IFN-g (donor 28185, Table 15): 205 pg/mL | IFN-a (donor 28186, Table 15): 41 pg/mL | IFN-g (donor 28186, Table 15): 17 pg/mL | IFN-a (donor 28187, Table 15): 4 pg/mL | IFN-g (donor 28187, Table 15): 148 pg/mL | IFN-a (donor 28188, Table 15): 4 pg/mL | IFN-g (donor 28188, Table 15): 8 pg/mL | IFN-a (pg/ml) 28218 (donor 28218, 20 μg/ml, 24 h): 32 pg/mL | IFN-g (pg/ml) 28218 (donor 28218, 20 μg/ml, 24 h): 13 pg/mL | IFN-a (pg/ml) 28219 (donor 28219, 20 μg/ml, 24 h): 32 pg/mL | IFN-g (pg/ml) 28219 (donor 28219, 20 μg/ml, 24 h): 7 pg/mL | IFN-a (pg/ml) 28220 (donor 28220, 20 μg/ml, 24 h): 32 pg/mL | IFN-g (pg/ml) 28220 (donor 28220, 20 μg/ml, 24 h): 25 pg/mL | IFN-a (pg/ml) 28221 (donor 28221, 20 μg/ml, 24 h): 32 pg/mL | IFN-g (pg/ml) 28221 (donor 28221, 20 μg/ml, 24 h): 141 pg/mL | IFN-α (pg/ml) mean [6]: 220 pg/mL | IFN-γ (pg/ml) mean [6]: 1425 pg/mL | IFN-α (pg/ml) mean [7]: 67 pg/mL | IFN-γ (pg/ml) mean [7]: 161 pg/mL | IFN-α (pg/ml) mean [8]: 268 pg/mL | IFN-γ (pg/ml) mean [8]: 621 pg/mL | IFN-α (pg/ml) mean [9]: 32 pg/mL | IFN-γ (pg/ml) mean [9]: 191 pg/mL | IFN-α mean [10]: 16 | IFN-γ mean [10]: 45 | IFN-α (pg/ml) mean [11]: 132 pg/mL | IFN-γ (pg/ml) mean [11]: 525 pg/mL | IFN-α (pg/ml) mean [12]: 321 pg/mL | IFN-γ (pg/ml) mean [12]: 375 pg/mL | IFN-α (pg/ml) mean [13]: 50 pg/mL | IFN-γ (pg/ml) mean [13]: 346 pg/mL | IFN-a (pg/ml) mean [14]: 42 pg/mL | IFN-g (pg/ml) mean [14]: 94 pg/mL | IFN-a (pg/ml) mean [15]: 32 pg/mL | IFN-g (pg/ml) mean [15]: 47 pg/mL | IFN-a (pg/ml) ×2 (mean ×2, Table 15): 84 pg/mL | IFN-g (pg/ml) ×4 (mean ×4, Table 15): 378 pg/mL
